Patent publication US8853258B2, “C-linked hydroxamic acid derivatives useful as antibacterial agents” (Pfizer Inc., priority 2009, dated 2014)
pIC50: −log10 of the molar value. In brackets after ≈: the same amount, converted by molar mass. Read-outs that look alike come from different tables or passages of the source.

Columns and labels:
[1] = biological target: Pseudomonas aeruginosa LpxC enzyme (Pseudomonas aeruginosa (strain ATCC 15692 / DSM 22644 / CIP 104116 / JCM 14847 / LMG 12228 / 1C / PRS 101 / PAO1), UniProt P47205); assay: IC50 Assay, LpxC Enzyme from P. aeruginosa (PA LpxC Enzyme IC50); type: biochemical
In short: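 Reaction run 1 h then stopped with 1N HCl. Conversion measured by RapidFire high-throughput mass spectrometry. IC50 derived from percent conversion relative to a no-enzyme control.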

[2] = tested on: Acinetobacter baumanii/haemolyticus: Multidrug-resistant clinical isolate (AB-3167); assay: MIC determination (CLSI), AB-3167; type: cell-based; details: for MIC: Acinetobacter baumannii
In short: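 Multidrug-resistant clinical isolate AB-3167 (A. baumannii/haemolyticus) tested for minimum inhibitory concentration following CLSI dilution susceptibility standards M7-A7 and M100-S18.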

[3] = tested on: Escherichia coli EC-1: VOGEL, mouse virulent; assay: MIC determination (CLSI), EC-1; type: cell-based; details: for MIC: Escherichia coli
In short: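 E. coli Vogel, a mouse-virulent strain (EC-1), was tested. MICs were set by dilution susceptibility testing per CLSI standards M7-A7/M100-S18.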

[4] = tested on: Klebsiella pneumoniae: Ciprofloxacin-resistant isolate, ESBL, clinical isolate (KP-3700); assay: MIC determination (CLSI), KP-3700; type: cell-based
In short: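 MIC measured by broth dilution according to CLSI M7-A7 and M100-S18 standards. Test organism was a ciprofloxacin-resistant, ESBL-expressing clinical isolate.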

[5] = tested on: Pseudomonas aeruginosa UI-18: Wild-type (PA-7); assay: MIC determination (CLSI), PA-7; type: cell-based; details: for MIC: Pseudomonas aeruginosa
In short: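 MIC by dilution method per CLSI M7-A7 and M100-S18 guidelines. Strain: wild-type Pseudomonas aeruginosa UI-18.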

[6] = P. aeruginosa LpxC enzyme, read-out: PA LpxC enzyeme IC50
[7] = Acinetobacter baumanii/haemolyticus multidrug-resistant clinical isolate AB-3167
[8] = Escherichia coli EC-1 VOGEL, mouse virulent
[9] = Pseudomonas aeruginosa UI-18 wild-type PA-7
[10] = Table 1, read-out: PA LpxC enzyeme IC50
[11] = Table 1, MIC, read-out: AB-3167 (MIC)
[12] = Table 1, MIC, read-out: PA-7 (MIC)
[13] = Acinetobacter baumanii/haemolyticus AB-3167
[14] = Pseudomonas aeruginosa UI-18 (PA-7)
[15] = Table 3, read-out: PA LpxC enzyeme IC^50

SMILES	pIC50 [1, 6]	AB-3167 MIC [2, 7]	EC-1 MIC [3, 8] [µg/mL]	KP-3700 MIC [4]	PA-7 MIC [5, 9] [µg/mL]	also measured
Cc1cc(CCC(C)(C(=O)NO)S(C)(=O)=O)ccc1-c1ccccc1 (stereo not drawn) [Example 159]	8.25	32 µg/mL	4	16 µg/mL	8	–
CC(=O)NC[C@@H]1CN(c2ccc(-c3ccc(CC[C@](C)(C(=O)NO)S(C)(=O)=O)cc3)c(F)c2)C(=O)O1 [Example 14, (2R)-4-{4′-[(5R)-5-(Acetamidomethyl)-2-oxo-1,3-oxazolidin-3-yl]-2′-fluorobiphenyl-4-yl}-N-hydroxy-2-methyl-2-(methylsulfonyl)butanamide]	–	–	–	≧64 mg/L	–	pIC50 [1, 10]: 8.83; MIC [2, 11]: ≥ 64 µg/mL; MIC ([3]; read-out: EC-1: (MIC)): 16 µg/mL (≈ 30.7 µM); MIC [5, 12]: 32 µg/mL (≈ 61.4 µM)
CC(CCc1ccc(-c2ccc([N+](=O)[O-])cc2)cc1)(C(=O)NO)S(C)(=O)=O (racemic) [Example 5, (+/−)-N-hydroxy-2-methyl-2-(methylsulfonyl)-4-(4′-nitrobiphenyl-4-yl)butanamide]	–	–	–	1 µg/mL	–	pIC50 [1, 10]: 9.92; MIC [2, 11]: 32 µg/mL (≈ 81.5 µM); MIC ([3]; read-out: EC-1: (MIC)): 0.5 µg/mL (≈ 1.27 µM); MIC [5, 12]: 0.5 µg/mL (≈ 1.27 µM)
CC(=O)Nc1ccc(-c2ccc(CC[C@](C)(C(=O)NO)S(C)(=O)=O)cc2)cc1 [Example 205]	8.76	–	–	32 µg/mL	–	AB-3167 MIC [2, 13]: ≧64 mg/L; EC-1 MIC ([3]; Escherichia coli EC-1): 16 µg/mL; PA-7 MIC [5, 14]: 4 µg/mL
CC(CCc1ccc(-c2ccc(CCCO)cc2)cc1)(C(=O)NO)S(C)(=O)=O (stereo not drawn) [Example 47]	9.88	≧64 mg/L	0.5	2 µg/mL	1	–
CC(CCc1ccc(-c2cccc(Cl)c2)cc1)(C(=O)NO)S(C)(=O)=O (stereo not drawn) [Example 88]	9.44	4 µg/mL	1	4 µg/mL	1	–
CC(CCc1ccc(-c2ccc(O)cc2)c(F)c1)(C(=O)NO)S(C)(=O)=O (stereo not drawn) [Example 177]	9.51	32 µg/mL	1	8 µg/mL	2	–
CC(CCc1ccc(-c2ccc(F)cc2)cc1O)(C(=O)NO)S(C)(=O)=O (racemic) [Example 19, (+/−)-4-(4′-Fluoro-3-hydroxybiphenyl-4-yl)-N-hydroxy-2-methyl-2-(methylsulfonyl)butanamide]	–	–	–	32 µg/mL	–	pIC50 ([1]; PA LpxC enzyeme IC50, Table 1): 8.46; MIC [2, 11]: ≥ 64 µg/mL; MIC ([3]; read-out: EC-1: (MIC)): 8 µg/mL (≈ 21 µM); MIC [5, 12]: 16 µg/mL (≈ 41.9 µM)
CC(CCc1ccc(-c2ccc3[nH]ccc3c2)cc1)(C(=O)NO)S(C)(=O)=O (stereo not drawn) [Example 57]	9.53	8 µg/mL	0.5	8 µg/mL	0.5	–
C[C@@](CCc1ccc(-c2ccc(C#N)cn2)cc1)(C(=O)NO)S(C)(=O)=O [Example 202]	9.09	–	–	16 µg/mL	–	AB-3167 MIC [2, 13]: ≧64 mg/L; EC-1 MIC ([3]; Escherichia coli EC-1): 8 µg/mL; PA-7 MIC [5, 14]: 1 µg/mL
CC(CCc1ccc(OCc2cccc3cccnc23)cc1)(C(=O)NO)S(C)(=O)=O (stereo not drawn) [Example 296, N-hydroxy-2-methyl-2-(methylsulfonyl)-4-[4-(quinolin-8-ylmethoxy)phenyl]butanamide]	–	–	–	16 µg/mL	–	pIC50 [1, 15]: 7.80; MIC ([2]; Table 3, read-out: AB-3167 MIC): 32 µg/mL (≈ 74.7 µM); MIC ([3]; read-out: EC-1 MIC): 8 µg/mL (≈ 18.7 µM); MIC ([5]; Table 3, read-out: PA-7 MIC): ≥ 64 µg/mL
C#CCOc1ccc(CCC(C)(C(=O)NO)S(C)(=O)=O)cc1 (stereo not drawn) [Example 265, N-hydroxy-2-methyl-2-(methylsulfonyl)-4-[4-(prop-2-yn-1-yloxy)phenyl)butanamide]	–	–	–	≧64 mg/L	–	pIC50 [1, 15]: 6.98; MIC ([2]; Table 3, read-out: AB-3167 MIC): ≥ 64 µg/mL; MIC ([3]; read-out: EC-1 MIC): ≥ 64 µg/mL; MIC ([5]; Table 3, read-out: PA-7 MIC): 16 µg/mL (≈ 49.2 µM)
CC(CCc1ccc(-c2ccc3c(c2)OCO3)cc1)(C(=O)NO)S(C)(=O)=O (stereo not drawn) [Example 176]	10.52	16 µg/mL	0.5	2 µg/mL	0.5	–
CC(CCc1ccc(-c2ccccc2Cl)cc1)(C(=O)NO)S(C)(=O)=O (stereo not drawn) [Example 81]	9.35	32 µg/mL	2	8 µg/mL	1	–
CC(CCc1ccc(-c2ccccc2)cc1F)(C(=O)NO)S(C)(=O)=O (stereo not drawn) [Example 2, 4-(3-Fluorobiphenyl-4-yl)-N-hydroxy-2-methyl-2-(methylsulfonyl)butanamide]	–	–	–	4 µg/mL	–	pIC50 [1, 10]: 9.59; MIC [2, 11]: 16 µg/mL (≈ 43.8 µM); MIC ([3]; read-out: EC-1: (MIC)): 1 µg/mL (≈ 2.74 µM); MIC [5, 12]: 1 µg/mL (≈ 2.74 µM)
